Earlier results as cited in patent publication US6555530B1, “Use of estrogens and delta-gonadien-21-Ol-3,20-diones for treating insulin dependent and non-insulin dependent diabetes” (Novo Nordisk A/S, priority 1999, dated 2003).

Columns and labels:
[1] = test system: intact or ovarectomized female rats; settings: correlated to morphological changes in muscle
[2] = test system: streptozotocin diabetic rats; settings: implanted testosterone

## C[C@]12CC[C@H]3[C@@H](CCC4=CC(=O)CC[C@@]43C)[C@@H]1CC[C@@H]2O [Testosterone]
[1]
  insulin resistance: marked insulin resistance
[2]
  glycemic control by residual insulin: antagonized the ability of residual insulin to maintain glycemic control
